Assay results reported in paper PMC4974772, “In vitro anti-Leishmania activity of tetracyclic iridoids from Morinda lucida, benth” (Tropical Medicine and Health, 2016).
pIC50: −log10 of the molar value. Where “and” joins values, the source holds several entries; their conditions need not be identical. Identical values can stand only once. Like-named read-outs stand apart in the source and are kept apart here.

How the values were obtained:
[1] = tested on: Leishmania 010 (field strain of L. enriettii) promastigotes; assay: MIC by microscopy on Leishmania field strain 010 promastigotes; type: cell-based, L. enriettii (010)
Protocol: (§1) The field strain of L. enriettii (010) promastigotes, which had been isolated in Ghana, and the lab strain, Leishmania hertigi promastigotes, were used in this study because of their availability. Parasites were cultured in vitro according to conditions established previously. Log phase of parasites (1 × 10^6 parasites/ml) was diluted to a parasitemia of 3 × 10^5 parasites/ml with M199 medium and used for the drug assay. Estimation of parasitemia was done with the Neubauer’s counting chamber.
Promastigotes of Leishmania 010 were seeded and incubated in the presence or absence of (50–0.78 μM) compounds for 96 h and the minimum inhibitory concentration (MIC) of the compounds determined by microscopy.
The aim of the study was to investigate the anti-Leishmania properties of the three novel tetracyclic iridoid compounds previously found to have anti-trypanosome activity. In the determination of the effect of Molucidin, ML-2-3, and ML-F52 on L. hertigi and 010, parasites were challenged with 0–50 μM of each compound for 48 and 96 h to determine MIC and the concentration of compounds that inhibited parasite growth by 50 % (IC50) by microscopy and fluorescence-activated cell sorting (FACS) analysis, respectively. […] All three compounds share same side chains, iridoid tetracyclic skeleton, but differ in their functional group region. […]

[2] = tested on: Chang Liver (normal liver); assay: Cytotoxicity on normal liver Chang Liver; type: cell-based; settings: 48 h
Protocol: (§2) Table 2 Selective index of compounds tested for anti-Leishmania activity | column: IC50 (μM), 48 h / ML-2-2; IC50 (μM), 48 h / ML-2-3; IC50 (μM), 48 h / ML-F52; SI / ML-2-2; SI / ML-2-3; SI / ML-F52

L. hertigi parasites = assay: Fluor-microscopy analysis using DAPI (nucleus/kinetoplast count, morphology); type: cell-based, Leishmania hertigi; settings: 4 μM, 48 h, DAPI staining
Protocol: Parasites were incubated for 24 h under appropriate conditions (25 °C) with appropriate concentrations of active compounds, Molucidin and ML-F52. Parasites were then harvested and fixed with 4 % paraformaldehyde at room temperature for 5 min. Washing steps were carried out with PBS and PBST (0.1 % Triton X 100 in PBS) at room temperature for 5 min and 15 min, respectively. The parasites were stained with 4’,6-diamidino-2’-phenylindole dihydrochloride (DAPI) (5 μg/ml DAPI in PBS) for 10 min. After washing steps as above, the slides were mounted using parmafluor mounting reagent and covered with cover slips. The slides were observed under the Olympus fluorescent microscope (Olympus BX53) to detect any phenotypic changes in L. hertigi parasites.
To investigate the effect of Molucidin and ML-F52 on the morphology and cell division of L. hertigi, we performed fluor-microscope observation with DAPI staining after incubation of parasite with 4 μM of Molucidin and ML-F52 for 48 h. […] The inhibition of cytokinesis might imply the inability of cells to replicate in the mammalian host and increase the parasite burden. This may prevent the parasites from over running the host-immune and may give the host the edge to clear the infection. […]

[3] = tested on: Leishmania hertigi promastigotes; assay: In vitro viacount assay (Guava viacount, FACS) on L. hertigi promastigotes; type: cell-based
Protocol: as §1
Leishmania promastigote forms of L. hertigi parasites were seeded and incubated in the presence or absence of (50–0.78 μM) compounds (dissolved in DMSO) for 48 h, after which the Guava reagent for viacount (Millipore) was added to the culture in the ratio of 1:1 and incubated for 30 min. Analysis was performed using the Millipore guava easyCyte 5HT (USA) according to the manufacture’s instruction.
The aim of the study was to investigate the anti-Leishmania properties of the three novel tetracyclic iridoid compounds previously found to have anti-trypanosome activity. In the determination of the effect of Molucidin, ML-2-3, and ML-F52 on L. hertigi and 010, parasites were challenged with 0–50 μM of each compound for 48 and 96 h to determine MIC and the concentration of compounds that inhibited parasite growth by 50 % (IC50) by microscopy and fluorescence-activated cell sorting (FACS) analysis, respectively. […] All three compounds share same side chains, iridoid tetracyclic skeleton, but differ in their functional group region. Molucidin and ML-F52 are esters while ML-2-3 is carboxylic acid. The functional groups may play a key role in the activity of the compounds against Leishmania.

Hs-888Lu (normal lung) = assay: Cytotoxicity on normal lung Hs-888Lu; type: cell-based; settings: 48 h
Protocol: as §2

[4] = tested on: HF-19 (normal lung fibroblasts); assay: Cytotoxicity on normal lung fibroblasts HF-19; type: cell-based; settings: 48 h
Protocol: as §2

[5] = tested on: NBIRGB (normal skin fibroblasts); assay: Cytotoxicity on normal skin fibroblasts NBIRGB; type: cell-based; settings: 48 h
Protocol: as §2

Structure (SMILES) | anti-Leishmania activity ([1]; 010 field strain, 0–50 μM, 96 h) | MIC after 96 h (010) ([1]; promastigotes, 50–0.78 μM, microscopy) | pIC50 [2] | effect on parasite morphology (L. hertigi parasites) | 2N/2K cells (two sets of nucleus and kinetoplast) (L. hertigi parasites; microscopic counting, DMSO-treated cells 10 % 2N/2K) | anti-Leishmania activity ([3]; L. hertigi, 0–50 μM, 48 h) | pIC50 ([3]; promastigotes, 48 h, 50–0.78 μM, Guava viacount FACS, read-out: IC50 after 48 h (L. hertigi)) | pIC50 (Hs-888Lu (normal lung)) | pIC50 [4] | pIC50 [5] | IC50 ([3]; Leishmania hertigi, positive control, strain not stated in footnote, read-out: IC50 of amphotericin B (positive control)) [µg/mL]
COC(=O)C1=CO[C@@H]2O[C@H]3/C(=C\c4ccc(O)c(OC)c4)C(=O)O[C@]34C=C[C@H]1[C@H]24 [Molucidin] | had anti-Leishmania activity | 4.167 µM and 4.17 µM | 5.03 | induced short stumpy form parasite cells | 30–40% | had anti-Leishmania activity | 5.37 | 5.03 | 4.85 | 5.15 | –
C[C@@H]1[C@H](O)[C@@H](C)/C=C/C=C/C=C/C=C/C=C/C=C/C=C/[C@H](O[C@@H]2O[C@H](C)[C@@H](O)[C@H](N)[C@@H]2O)C[C@@H]2O[C@](O)(C[C@@H](O)C[C@@H](O)[C@H](O)CC[C@@H](O)C[C@@H](O)CC(=O)O[C@H]1C)C[C@H](O)[C@H]2C(=O)O [amphotericin B, reference compound] | – | – | – | – | – | – | – | – | – | – | 0.1
